# System: MOLM-13 cells
# Test: In vitro proliferation (Cell Titer Glo, 6 days) of Compound 51 in combination with gilteritinib, midostaurin, idarubicin or decitabine, MOLM-13
# Format: cell-based, human
# Set-up: key to maxR call (synergy/antagonism), combination with Gilteritinib on MOLM-13 cell proliferation / Synergy/antagonism call (maxR test), MOLM-13 Cell Proliferation: synergy is indicated by “**”; antagonism is indicated by “*”; no asterisk: absence of any asterisk indicates an additive effect
# Protocol: 3) In Vitro Proliferation—Menin-MLL Inhibitor in Combination with FLT3 Inhibitor (Gilteritinib or Midostaurin), DNA Intercalating Agent (Idarubicin) or Hypomethylating Agent (Decitabine)
# The effect of Compound 51 in combination with gilteritinib, midostaurin, idarubicin or decitabine was determined in proliferation assays.
# AML cell lines MOLM-13, OCI-AML3 and MV4-11 were purchased from DSMZ. MOLM-13 were grown in RPMI medium supplemented with 10% Fetal Bovine Serum (FBS) and 1% penicillin/streptomycin. MV4-11 cells were grown in IMDM medium supplemented with 10% FBS and 1% penicillin/streptomycin. OCI-AML3 cells were cultured in 80-90% alpha-MEM (with or without ribo- and deoxyribonucleosides)+10-20% FBS. All cell lines were cultured at 37° C. in 5% CO2 atmosphere.
# AML cell lines (10-20×10^3 cells/well) were seeded in 96-well plates and grown for 6 days in serum (10%)-containing medium in the presence or absence of inhibitors at the indicated concentrations. Proliferation was analyzed by means of a Cell Titer Glo assay using the […] (Promega, Madison, WI, USA), according to the manufacturer's instructions. Data are mean with standard deviation from two to four independent experiments in technical triplicates.
# R-based Biochemically Intuitive Generalized Loewe (BIGL) model implemented with a highest single agent (HSA) null model. Specifically, the BIGL methodology was applied to calculate drug-drug interactions (Van der Borght, K., Tourny, A., Bagdziunas, R. et al. BIGL: Biochemically Intuitive Generalized Loewe null model for prediction of the expected combined effect compatible with partial agonism and antagonism. Sci Rep 7, 17935 (2017); Thas, O., Tourny, A., Verbist, B., Hawinkel, S., Nazarov, M., Mutambanengwe, K., & Bijnens, L. Statistical detection of synergy: New methods and a comparative study. Pharmaceutical Statistics (2021)).
# Synergy matrix results of the BIGL analysis of the cell line data with HSA as mean model calculated on the basis of the cellular metabolic activity using Cell Titer-Glo assay. Bootstrap confidence intervals are indicated. Effect sizes and their confidence intervals are shown. […] No significant average effect if zero is included in the interval.
# [1] = Compound 51 0.01 μm, Gilteritinib 0.01 μM
# [2] = Compound 51 0.05 μm + Decitabine 0.015 μM
# [3] = Compound 51 0.05 μm + Decitabine 0.15 μM
# [4] = Compound 51 0.05 μm + Idarubicin 0.001 μM
# [5] = Compound 51 0.05 μm + Midostaurin 0.006 μM
structure (smiles),measurement,setting,value
CC(=O)N1CCC(CN2CC[C@@H](Cc3cn(-c4ccc(F)cc4C(=O)N(C)C(C)C)c4cncc(C)c34)C2)CC1 [Compound 51],"Effect size (BIGL, HSA null model), MOLM-13 Cell Proliferation",Compound 51 0.0001 μm + Idarubicin 0.0005 μM,−0.05
same,"Effect size (BIGL, HSA null model), MOLM-13 Cell Proliferation",Compound 51 0.0001 μm + Idarubicin 0.001 μM,−0.02
same,"Effect size (BIGL, HSA null model), MOLM-13 Cell Proliferation",Compound 51 0.0001 μm + Idarubicin 0.0025 μM,0.07
same,"Effect size (BIGL, HSA null model), MOLM-13 Cell Proliferation",Compound 51 0.0001 μm + Idarubicin 0.005 μM,−0.1
same,"Effect size (BIGL, HSA null model), MOLM-13 Cell Proliferation",Compound 51 0.0001 μm + Idarubicin 0.05 μM,0.03
same,"Effect size (BIGL, HSA null model), MOLM-13 Cell Proliferation",Compound 51 0.0001 μm + Idarubicin 0.5 μM,0.02
same,"Effect size (BIGL, HSA null model), MOLM-13 Cell Proliferation",Compound 51 0.0001 μm + Midostaurin 0.0012 μM,−0.07
same,"Effect size (BIGL, HSA null model), MOLM-13 Cell Proliferation",Compound 51 0.0001 μm + Midostaurin 0.006 μM,−0.02
same,"Effect size (BIGL, HSA null model), MOLM-13 Cell Proliferation",Compound 51 0.0001 μm + Midostaurin 0.025 μM,0.05
same,"Effect size (BIGL, HSA null model), MOLM-13 Cell Proliferation",Compound 51 0.0001 μm + Midostaurin 0.05 μM,−0.06
same,"Effect size (BIGL, HSA null model), MOLM-13 Cell Proliferation",Compound 51 0.0001 μm + Midostaurin 0.1 μM,−0.04
same,"Effect size (BIGL, HSA null model), MOLM-13 Cell Proliferation",Compound 51 0.0001 μm + Midostaurin 0.5 μM,−0.02
same,"Effect size (BIGL, HSA null model), MOLM-13 Cell Proliferation",Compound 51 0.001 μm + Decitabine 0.0015 μM,−0.03
same,"Effect size (BIGL, HSA null model), MOLM-13 Cell Proliferation",Compound 51 0.001 μm + Decitabine 0.015 μM,−0.07
same,"Effect size (BIGL, HSA null model), MOLM-13 Cell Proliferation",Compound 51 0.001 μm + Decitabine 0.15 μM,−0.03
same,"Effect size (BIGL, HSA null model), MOLM-13 Cell Proliferation",Compound 51 0.001 μm + Decitabine 1.5 μM,−0.03
same,"Effect size (BIGL, HSA null model), MOLM-13 Cell Proliferation",Compound 51 0.001 μm + Decitabine 3 μM,−0.02
same,"Effect size (BIGL, HSA null model), MOLM-13 Cell Proliferation",Compound 51 0.001 μm + Idarubicin 0.0005 μM,−0.03
same,"Effect size (BIGL, HSA null model), MOLM-13 Cell Proliferation",Compound 51 0.001 μm + Idarubicin 0.001 μM,−0.07
same,"Effect size (BIGL, HSA null model), MOLM-13 Cell Proliferation",Compound 51 0.001 μm + Idarubicin 0.0025 μM,0.04
same,"Effect size (BIGL, HSA null model), MOLM-13 Cell Proliferation",Compound 51 0.001 μm + Idarubicin 0.005 μM,−0.1
same,"Effect size (BIGL, HSA null model), MOLM-13 Cell Proliferation",Compound 51 0.001 μm + Idarubicin 0.05 μM,0.02
same,"Effect size (BIGL, HSA null model), MOLM-13 Cell Proliferation",Compound 51 0.001 μm + Idarubicin 0.5 μM,0.02
same,"Effect size (BIGL, HSA null model), MOLM-13 Cell Proliferation",Compound 51 0.001 μm + Midostaurin 0.0012 μM,−0.03
same,"Effect size (BIGL, HSA null model), MOLM-13 Cell Proliferation",Compound 51 0.001 μm + Midostaurin 0.006 μM,−0.02
same,"Effect size (BIGL, HSA null model), MOLM-13 Cell Proliferation",Compound 51 0.001 μm + Midostaurin 0.025 μM,0.07
same,"Effect size (BIGL, HSA null model), MOLM-13 Cell Proliferation",Compound 51 0.001 μm + Midostaurin 0.05 μM,−0.06
same,"Effect size (BIGL, HSA null model), MOLM-13 Cell Proliferation",Compound 51 0.001 μm + Midostaurin 0.1 μM,−0.04
same,"Effect size (BIGL, HSA null model), MOLM-13 Cell Proliferation",Compound 51 0.001 μm + Midostaurin 0.5 μM,−0.02
same,"Effect size (BIGL, HSA null model), combination with Gilteritinib on MOLM-13 cell proliferation","Compound 51 0.001 μm, Gilteritinib 0.0005 μM",−0.01
same,"Effect size (BIGL, HSA null model), combination with Gilteritinib on MOLM-13 cell proliferation","Compound 51 0.001 μm, Gilteritinib 0.005 μM",−0.06
same,"Effect size (BIGL, HSA null model), combination with Gilteritinib on MOLM-13 cell proliferation","Compound 51 0.001 μm, Gilteritinib 0.01 μM",−0.1
same,"Effect size (BIGL, HSA null model), combination with Gilteritinib on MOLM-13 cell proliferation","Compound 51 0.001 μm, Gilteritinib 0.05 μM",−0.02
same,"Effect size (BIGL, HSA null model), combination with Gilteritinib on MOLM-13 cell proliferation","Compound 51 0.001 μm, Gilteritinib 0.1 μM",0.02
same,"Effect size (BIGL, HSA null model), combination with Gilteritinib on MOLM-13 cell proliferation","Compound 51 0.001 μm, Gilteritinib 1 μM",−0.01
same,"Effect size (BIGL, HSA null model), MOLM-13 Cell Proliferation",Compound 51 0.01 μm + Decitabine 0.0015 μM,0
same,"Effect size (BIGL, HSA null model), MOLM-13 Cell Proliferation",Compound 51 0.01 μm + Decitabine 0.015 μM,−0.09
same,"Effect size (BIGL, HSA null model), MOLM-13 Cell Proliferation",Compound 51 0.01 μm + Decitabine 0.15 μM,−0.16
same,"Effect size (BIGL, HSA null model), MOLM-13 Cell Proliferation",Compound 51 0.01 μm + Decitabine 1.5 μM,−0.05
same,"Effect size (BIGL, HSA null model), MOLM-13 Cell Proliferation",Compound 51 0.01 μm + Decitabine 3 μM,−0.02
same,"Effect size (BIGL, HSA null model), MOLM-13 Cell Proliferation",Compound 51 0.01 μm + Idarubicin 0.0005 μM,−0.35
same,"Effect size (BIGL, HSA null model), MOLM-13 Cell Proliferation",Compound 51 0.01 μm + Idarubicin 0.001 μM,−0.73
same,"Effect size (BIGL, HSA null model), MOLM-13 Cell Proliferation",Compound 51 0.01 μm + Idarubicin 0.0025 μM,−0.26
same,"Effect size (BIGL, HSA null model), MOLM-13 Cell Proliferation",Compound 51 0.01 μm + Idarubicin 0.005 μM,−0.11
same,"Effect size (BIGL, HSA null model), MOLM-13 Cell Proliferation",Compound 51 0.01 μm + Idarubicin 0.05 μM,0.02
same,"Effect size (BIGL, HSA null model), MOLM-13 Cell Proliferation",Compound 51 0.01 μm + Idarubicin 0.5 μM,0.02
same,"Effect size (BIGL, HSA null model), MOLM-13 Cell Proliferation",Compound 51 0.01 μm + Midostaurin 0.0012 μM,0.01
same,"Effect size (BIGL, HSA null model), MOLM-13 Cell Proliferation",Compound 51 0.01 μm + Midostaurin 0.006 μM,−0.06
same,"Effect size (BIGL, HSA null model), MOLM-13 Cell Proliferation",Compound 51 0.01 μm + Midostaurin 0.025 μM,0.1
same,"Effect size (BIGL, HSA null model), MOLM-13 Cell Proliferation",Compound 51 0.01 μm + Midostaurin 0.05 μM,−0.06
same,"Effect size (BIGL, HSA null model), MOLM-13 Cell Proliferation",Compound 51 0.01 μm + Midostaurin 0.1 μM,−0.04
same,"Effect size (BIGL, HSA null model), MOLM-13 Cell Proliferation",Compound 51 0.01 μm + Midostaurin 0.5 μM,−0.02
same,"Effect size (BIGL, HSA null model), combination with Gilteritinib on MOLM-13 cell proliferation","Compound 51 0.01 μm, Gilteritinib 0.0005 μM",0.01
same,"Effect size (BIGL, HSA null model), combination with Gilteritinib on MOLM-13 cell proliferation","Compound 51 0.01 μm, Gilteritinib 0.005 μM",−0.08
same,"Effect size (BIGL, HSA null model), combination with Gilteritinib on MOLM-13 cell proliferation",[1],−0.25
same,"maxR call (synergy/antagonism), combination with Gilteritinib on MOLM-13 cell proliferation",[1],**
same,"Effect size (BIGL, HSA null model), combination with Gilteritinib on MOLM-13 cell proliferation","Compound 51 0.01 μm, Gilteritinib 0.05 μM",−0.09
same,"Effect size (BIGL, HSA null model), combination with Gilteritinib on MOLM-13 cell proliferation","Compound 51 0.01 μm, Gilteritinib 0.1 μM",0.1
same,"Effect size (BIGL, HSA null model), combination with Gilteritinib on MOLM-13 cell proliferation","Compound 51 0.01 μm, Gilteritinib 1 μM",−0.01
same,"Effect size (BIGL, HSA null model), MOLM-13 Cell Proliferation",Compound 51 0.05 μm + Decitabine 0.0015 μM,−0.03
same,"Effect size (BIGL, HSA null model), MOLM-13 Cell Proliferation",[2],−0.13
same,"Synergy/antagonism call (maxR test), MOLM-13 Cell Proliferation",[2],**
same,"Effect size (BIGL, HSA null model), MOLM-13 Cell Proliferation",[3],−0.32
same,"Synergy/antagonism call (maxR test), MOLM-13 Cell Proliferation",[3],**
same,"Effect size (BIGL, HSA null model), MOLM-13 Cell Proliferation",Compound 51 0.05 μm + Decitabine 1.5 μM,−0.05
same,"Effect size (BIGL, HSA null model), MOLM-13 Cell Proliferation",Compound 51 0.05 μm + Decitabine 3 μM,−0.03
same,"Effect size (BIGL, HSA null model), MOLM-13 Cell Proliferation",Compound 51 0.05 μm + Idarubicin 0.0005 μM,−0.1
same,"Effect size (BIGL, HSA null model), MOLM-13 Cell Proliferation",[4],−0.41
same,"Synergy/antagonism call (maxR test), MOLM-13 Cell Proliferation",[4],**
same,"Effect size (BIGL, HSA null model), MOLM-13 Cell Proliferation",Compound 51 0.05 μm + Idarubicin 0.0025 μM,−0.23
same,"Effect size (BIGL, HSA null model), MOLM-13 Cell Proliferation",Compound 51 0.05 μm + Idarubicin 0.005 μM,−0.11
same,"Effect size (BIGL, HSA null model), MOLM-13 Cell Proliferation",Compound 51 0.05 μm + Idarubicin 0.05 μM,0.02
same,"Effect size (BIGL, HSA null model), MOLM-13 Cell Proliferation",Compound 51 0.05 μm + Idarubicin 0.5 μM,0.02
same,"Effect size (BIGL, HSA null model), MOLM-13 Cell Proliferation",Compound 51 0.05 μm + Midostaurin 0.0012 μM,−0.03
same,"Effect size (BIGL, HSA null model), MOLM-13 Cell Proliferation",[5],−0.21
same,"Synergy/antagonism call (maxR test), MOLM-13 Cell Proliferation",[5],**
same,"Effect size (BIGL, HSA null model), MOLM-13 Cell Proliferation",Compound 51 0.05 μm + Midostaurin 0.025 μM,−0.14
same,"Effect size (BIGL, HSA null model), MOLM-13 Cell Proliferation",Compound 51 0.05 μm + Midostaurin 0.05 μM,0.08
same,"Effect size (BIGL, HSA null model), MOLM-13 Cell Proliferation",Compound 51 0.05 μm + Midostaurin 0.1 μM,−0.04
same,"Effect size (BIGL, HSA null model), MOLM-13 Cell Proliferation",Compound 51 0.05 μm + Midostaurin 0.5 μM,−0.02
same,"Effect size (BIGL, HSA null model), combination with Gilteritinib on MOLM-13 cell proliferation","Compound 51 0.05 μm, Gilteritinib 0.0005 μM",−0.03
